Laboratory results reported in patent publication US6017958A, “Method of treating malignant tumors with thyroxine analogues having no significant hormonal activity” (Octamer, Inc., priority 1997, dated 2000).

Columns and labels:
[1] = test system: E-ras 20 cells (E-ras transformed bovine endothelial cells); assay: Tumorigenicity of pretreated E-ras 20 cells in athymic nude mice; format: in vivo, bovine cells in nude mice; settings: 10 μM
Experimental: E-ras transformed bovine endothelial cells (Bauer et al., 1996, Intl. J. Oncology 8:239-252) were exposed to 10 μM DIME for […]. The DIME-treated cells (10^5 or 10^6 cells/100 μL) were injected subcutaneously into nude mice and tumor progression followed for 25 days.
Tumorigenicity of E-ras 20 Cells in athymic nude mice was assayed as described previously. Bauer et al., 1996, "Modification of growth related enzymatic pathways and apparent loss of tumorigenicity of a ras-transformed bovine endothelial cell line by treatment with 5-iodo-6-amino-1,2-benzopyrone (INH2 BP)" Intl. J. Oncol. 8:239-252. The in vivo antitumorigenic action of DIME was assayed on athymic mice inoculated with 10^6 MDA-MB-231 cells, as in the tumorgenicity assay. In about 10-14 days when subcutaneous tumors appeared, DIME treatment consisting of p.o. administration of DIME suspension (once a day) was commenced and continued for 28-32 days as reported, Kun et al., 1996, "Induction of tumor apotosis by methyl-3,5-diiodo-4-(4'-methoxyphenoxy) benzoate (DIME)", Abstract No. 102, Int. J. Oncol. 9:supplement 829.
The structural specificity of DIME and its homologs and analogs can be assessed by examining Table 7 and Table 8. We have prepared 17 novel structural analogs of DIME and compared the antitumor activity of 10 of the compounds (Table 8) which appears sufficient to draw some general conclusions. The biological assay chosen was the determination of antitumorigenic action of the drugs on the in vivo tumorigenicity of E-ras cells in nude mice, Bauer et al., 1996, "Modification of growth related enzymatic pathways and apparent loss of tumorigenicity of a ras-transformed bovine endothelial cell line by treatment with 5-iodo-6-amino-1,2-benzopyrone (INH2 BP)" Intl. J. Oncol. 8:239-252. E-ras 20 cells (10^5 or 10^6) were incubated with 10 μM DIME or analogs for 4 days, then 10^5 and 10^6 cells were inoculated subcutaneously into nude mice (5 per test) and rates of tumor formation quantitated by direct tumor volume measurements (cf. 2). […] Identical antitumorigenic tests were performed with nine DIME analogs and taking the effect of DIME as 100% (comparing tumor sizes at day 25) the antitumor efficacy was calculated as percent of DIME activity. […] Results summarized in Table 8 illustrate that substituents in R1 and R2 determine antitumor efficacy.
The efficacy of DIME analogs on in vivo tumorigenicity of Eras 20 cells i
athymic mice was compared to that of DIME (compound 1) which was taken as
100, determining the size of tumor reduction at day 25. Pretreatment with
DIME or its analogs (Table 7) was with 10 μM for 4 days prior to s.c.

[2] = test system: A-549 (lung cancer) cell extracts, esterase; assay: Esterase cleavage of DIME by A-549 cell extracts (TLC); format: in vitro ADME, human
Experimental: In the experiment shown in lines 1 and 2 the esterase activity of the extract occurs during 4 hours incubation with 1 μM DIME. […] Lines 3 and 4 depict the same experiments as in lines 1 and 2, except the cell extracts were prepared from intact cells preincubated for 24 hours with 1 μM DIME, then washed and extracted.
(a) mouse tissue homogenate (brain, kidney, liver lung) consisting of 0.2 g of tissue in 1.0 ml. of homogenization buffer (50 mM Tris (pH 7.4), 400 mM NaCl, 10 mM MgCl2, 1 mM EDTA, 0.5% NP-40, 0.5 mM PMSF) each were combined with 1.0 ml of MES buffer (100 mM ph 6.5) containing 20 μM [^14 C]-DIME (10.55 mCi/mmol), and the mixtures were incubated at 37° C. for 4 hours. Then to each tube was added sequentially ethyl acetate (1.5 ml), ammonium sulfate (900 mg) and 60% perchloric acid (160 μl), with vortexing after each addition. After standing for 10 minutes, phase separation was enhanced by benchtop centrifugation. The upper (ethyl acetate) layer was drawn off, and the lower aqueous and interphase material was extracted with a second portion of ethyl acetate (1.5 ml). The ethyl acetate extracts (combined) contained more than 90% of the total cpm present in the original incubate (ca. 4×10^5 cpm). […]

[3] = test system: iodine uptake into the thyroid; settings: rats, as compared to thyroxine (Money et al., 1959); cited from earlier work
E-ras 20 cells = assay: Growth inhibition, E-ras 20; format: cell-based, bovine; settings: Bos taurus, 72 h; day 3; Table 11; read-out: I50 (day 3)
Experimental: E-ras 20 cells were cultured as reported, Bauer et al., 1996, "Modification of growth related enzymatic pathways and apparent loss of tumorigenicity of a ras-transformed bovine endothelial cell line by treatment with 5-iodo-6-amino-1,2-benzopyrone (INH2 BP)" Intl. J. Oncol. 8:239-252; HT-144 (melanoma), DU-145 (prostatic cancer), HeLa (cervical cancer), HL 60 (promyelocytic leukemia), MDA-MB-231 (mammary cancer), SK-Br-3 (mammary cancer), T47D (ductal mammary cancer), A559 (lung cancer) were obtained from American Type Culture Collection (Rockville, Md.) and cultured in prescribed media. The effect of DIME was tested in cultures with a starting cell density of 2×10^4 cells per cm^2 and comparison of the effect of DIME on cell growth (intact cells identified by Trypan blue exclusion) was assayed by direct cell counting after trypsinization in a hemocytometer 72 hours after drug addition.
For DIME-exposure experiments cells were seeded into 2 cm^2 wells at a density of 2×10^4 cells/cm^2. DIME at various concentrations was added to the medium at the time of seeding. The cell cultures were then incubated for 3 days (37° C. in 5% at CO2 atmosphere).

[4] = test system: protein phosphatase 2A (E-ras 20 cell nuclear extract); assay: Phosphatase activity, E-ras 20 cell nuclear extract; format: cell-based, bovine
Experimental: Compounds 1-13 were tested for protein phosphatase 2A activation in malignant tumor cell cultures in vitro according to the protocol described in Bauer et al., 1996, "Modification of Growth Related Enzymatic Pathways and Apparent Loss of Tumorigenicity of a Ras-Transformed Bovine Endothelial Cell Line by Treatment with 5-Iodo-6-Amino-1,2-Benzopyrone (INH2 BP)," International J. of Oncology 8:239-252. All other compounds were ineffective.

COC(=O)c1cc(I)c(Oc2ccc(OC)cc2)c(I)c1 [Compound 1, Methyl 3,5-diiodo-4-(4'-methoxyphenoxy)benzoate]
tumorigenicity of pretreated cells ([1]; 3 days pretreatment, followed 25 days): nearly completely abolished tumorigenicity | tumor formation from pretreated cells (FIG. 4) ([1]; 4 days pretreatment): tumor formation was completely abrogated | Efficacy (inhibition of E-ras 20 tumorigenicity, DIME = 100) ([1]; 4 days pretreatment, tumor size at day 25): 100% | ester bond cleavage by A-549 cells ([2]; A-549 cells): readily cleave the ester bond | esterase induction ([2]; intact cells preincubated 24 hours with 1 μM DIME): esterase is not induced by DIME | inhibition of uptake of iodine into the thyroid [3]: 15% | IC50 (E-ras 20 cells): 1000 nM | Phosphatase Activity ([4]; 50 μM DIME, untreated 29 ± 5): 44 ± 7 fmol Pi/mg protein × min. | activation of protein phosphatase 2A, fold ([4]; 50 μM, E-ras transformed cells): at least two-fold
